Assay results as given in patent publication US6809119B2, “Branched chain amino acid-dependent aminotransferase inhibitors and their use in the treatment of neurodegenerative diseases” (Warner-Lambert Company LLC, priority 2001, dated 2004).

Legend:
[1] = biological target: T1, human Branched Chain Amino Acid Aminotransferase cytosolic form (hBCATc) (Homo sapiens, UniProt P54687); experiment: In vitro coupled enzyme assay, human BCAT cytosolic form; assay type: biochemical; conditions: inhibition of recombinant human BCATc; coupled glutamate dehydrogenase/NADH assay, 37° C., pH 7.8; read-out: rhBCATc
T1 construct: inferred from purification on a Ni-charged chelating column with imidazole elution; made in house; host or cells: E. coli BL21(DE3)
T1 sequence (P54687 1-386): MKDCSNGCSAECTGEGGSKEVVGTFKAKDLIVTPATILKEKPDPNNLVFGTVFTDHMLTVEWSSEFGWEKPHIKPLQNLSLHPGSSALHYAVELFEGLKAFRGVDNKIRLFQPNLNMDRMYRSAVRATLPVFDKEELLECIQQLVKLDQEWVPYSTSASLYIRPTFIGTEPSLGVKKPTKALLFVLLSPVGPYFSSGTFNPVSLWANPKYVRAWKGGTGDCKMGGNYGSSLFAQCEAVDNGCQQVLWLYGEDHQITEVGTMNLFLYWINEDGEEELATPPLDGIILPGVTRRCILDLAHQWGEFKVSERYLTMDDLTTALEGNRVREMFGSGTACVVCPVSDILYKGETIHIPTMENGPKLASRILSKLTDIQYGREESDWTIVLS
Description: (§1) In vitro enzyme assay: human Branched Chain Amino Acid Aminotransferase cytosolic form (hBCATc) and mitochondrial form (hBCATm) as well as rat BCAT cytosolic form were assayed at 37° C. in 25 mM phosphate buffer pH 7.8. In addition, 2 mM DTT and 12.5 mM EDTA were added to the assay mixture. A coupling enzyme assay was used to monitor the production of glutamate. The formation of NADH from NAD+at […] was followed on a 96-well plate Molecular Devices plate reader. The following components were used in this coupled assay: 4 mM ADP, 1 mM NAD+, 750 μM L-Leucine, 500 μM a-ketoglutarate, 10 μM pyridoxal phosphate, 1 unit glutamate dehydrogenase, and 1.25 μg of the appropriate BCAT enzyme. Inhibitions by compounds were assayed by adding various concentrations to this coupled assay procedure as a DMSO stock up to a 5% v/v DMSO/buffer ratio.
(§2) Enzyme Preparation: humanBCATc and ratBCATc were expressed in BL21(DE3) cells. A growing culture of cells was induced with 1 mM IPTG at room temperature overnight. These cells were harvested by centrifugation at 10,000 g for 20 minutes. The supernatant was discarded, and the cells were stored at −80° C. until needed. The protein was purified by the following method. The cell paste was resuspended in extraction buffer (0.1 M phosphate, pH 8.0, with 0.01 M Tris-HCL and 5 mM TCEP and then lysed on a French Press at 1000 psi. The lysate was centrifuged at 10,000 g for 15 minutes, and the pellet was discarded. The supernatant was loaded onto a Hitrap Chelating column previously charged with 0.1 M NiSO4 and washed with 3 to 4 column volumes of extraction buffer. The column was then washed with 0.01 Tris, pH 7.5, 10% glycerol, 150 mM NaCl, 5 mM TCEP for two column volumes. The column was then further washed with two column volumes of 0.1 M phosphate, pH 6.0, 0.01 M Tris, 10% glycerol, and 750 mM NaCl. Finally, the column was washed with two column volumes of the same buffer plus 50 mM imidazole. The BCAT enzyme was then eluted with the same buffer but with 350 mM imidazole. The eluant was then dialyzed overnight against 10 mM phosphate buffer pH 8.0, 10% glycerol, and 5 mM TCEP. The dialyzed protein was then loaded onto a Q-sepharose column and eluted using a salt gradient. Active fractions were collected and further purified on a Superose-12 column to yield pure BCAT protein.

[2] = biological target: T2, rat BCAT cytosolic form (rrBCATc) (Rattus norvegicus, UniProt P54690); experiment: In vitro coupled enzyme assay, rat BCAT cytosolic form; assay type: biochemical; conditions: inhibition of recombinant rat BCATc; coupled glutamate dehydrogenase/NADH assay, 37° C., pH 7.8
T2 construct: inferred from purification on a Ni-charged chelating column with imidazole elution; made in house; host or cells: E. coli BL21(DE3)
T2 sequence (P54690 1-411): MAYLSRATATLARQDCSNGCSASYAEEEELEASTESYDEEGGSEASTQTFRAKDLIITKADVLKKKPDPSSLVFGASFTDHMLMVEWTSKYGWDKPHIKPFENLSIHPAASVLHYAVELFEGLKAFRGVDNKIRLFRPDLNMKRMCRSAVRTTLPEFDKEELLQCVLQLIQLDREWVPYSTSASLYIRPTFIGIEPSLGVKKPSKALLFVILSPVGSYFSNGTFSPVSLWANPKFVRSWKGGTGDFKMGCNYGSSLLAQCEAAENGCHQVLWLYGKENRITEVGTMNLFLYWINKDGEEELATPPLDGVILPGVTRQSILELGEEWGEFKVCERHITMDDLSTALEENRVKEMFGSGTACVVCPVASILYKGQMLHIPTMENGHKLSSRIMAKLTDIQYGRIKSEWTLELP
Description: as §1, §2

Q: With Cc1cccc(S(=O)(=O)Nc2ccc(C(=O)NNS(=O)(=O)c3ccccc3)cc2)c1 (hydrate or solvate) [Example 17, Benzoic acid, 4-[[(3-methylphenyl)sulfonyl]amino]-, 2-(phenylsulfonyl)hydrazide] as the compound, how does the melting point read?
A: 219 to 219.7 °C

Q: For O=C(NNS(=O)(=O)c1ccccc1)c1ccc([N+](=O)[O-])cc1 [Example 1, Benzoic acid, 4-nitro-2-(phenylsulfonyl)hydrazide], which IC50 [1] is on record?
A: 40 µM

Q: And the melting point?
A: 193 to 195 °C

Q: What does the source list for Nc1ccc(C(=O)NNS(=O)(=O)c2ccccc2)cc1 [Example 2, Benzoic acid, 4-amino-2-(phenylsulfonyl)hydrazide]?
A: IC50 [2]: 28.1 µM; IC50 [1]: 60 µM; melting point: 171 to 173 °C

Q: Which results are given for O=C(NNS(=O)(=O)c1ccccc1)c1ccc(NS(=O)(=O)c2c(Cl)cc(Cl)cc2Cl)cc1 [Example 3, Benzoic acid, 4-[[(2,4,6trichlorophenyl)sulfonyl]amino]-, 2-(phenylsulfonyl)hydrazide]?
A: IC50 [1]: 0.7 µM; melting point: 195.7 to 196.2 °C

Q: With O=C(NNS(=O)(=O)c1ccccc1)c1ccc(NS(=O)(=O)c2ccc(C(F)(F)F)cc2)cc1 [Example 4, Benzoic acid, 4-[[[4-(trifluoromethyl)phenyl]sulfonyl]amino]-, 2-(phenylsulfonyl)hydrazide] as the compound, how does the IC50 [1] read?
A: 6 µM

Q: And the melting point?
A: 98.5 to 99.4 °C

Q: Which IC50 [1] does the source give for O=C(NNS(=O)(=O)c1ccccc1)c1ccc(NS(=O)(=O)c2ccc(Oc3ccccc3)cc2)cc1 [Example 6, Benzoic acid, 4-[[[(4-phenoxy)benzene]sulfonyl]amino]-, 2-(phenylsulfonyl)hydrazide] here?
A: 3 µM

Q: And the melting point?
A: 94.1 to 94.9 °C

Q: Which melting point does the source give for Cc1cccc(Cl)c1S(=O)(=O)Nc1ccc(C(=O)NNS(=O)(=O)c2ccccc2)cc1 [Example 7, Benzoic acid, 4-[[(2-chloro-6-methylphenyl)sulfonyl]amino]-, 2-(phenylsulfonyl)hydrazide] here?
A: 214.4 to 215.6 °C

Q: Which IC50 [1] does the source give for CS(=O)(=O)Nc1ccc(C(=O)NNS(=O)(=O)c2ccccc2)cc1 [Example 8, Benzoic acid, 4-[(methylsulfonyl)amino]-, 2-(phenylsulfonyl)hydrazide] here?
A: 7 µM

Q: And the melting point?
A: 185.6 to 186.5 °C

Q: For Cc1ccc(S(=O)(=O)Nc2ccc(C(=O)NNS(=O)(=O)c3ccccc3)cc2)cc1 [Example 9, Benzoic acid, 4-[[(4-methylphenyl)sulfonyl]amino]-, 2-(phenylsulfonyl)hydrazide], which IC50 [1] is on record?
A: 3.8 µM

Q: And the melting point?
A: 191.6 to 192.4 °C

Q: Which IC50 [1] does the source give for CCc1ccc(S(=O)(=O)Nc2ccc(C(=O)NNS(=O)(=O)c3ccccc3)cc2)cc1 [Example 10, Benzoic acid, 4-[[(4-ethylphenyl)sulfonyl]amino]-, 2-(phenylsulfonyl)hydrazide] here?
A: 13 µM

Q: What about the melting point of the same compound?
A: 142.3 to 142.9 °C

Q: With CCCc1ccc(S(=O)(=O)Nc2ccc(C(=O)NNS(=O)(=O)c3ccccc3)cc2)cc1 [Example 11, Benzoic acid, 4-[[(4-n-propylphenyl)sulfonyl]amino]-, 2-(phenylsulfonyl)hydrazide] as the compound, how does the IC50 [1] read?
A: 7.5 µM

Q: Which IC50 [1] does the source give for CCCCc1ccc(S(=O)(=O)Nc2ccc(C(=O)NNS(=O)(=O)c3ccccc3)cc2)cc1 [Example 12, Benzoic acid, 4-[[(4-n-butylphenyl)sulfonyl]amino]-, 2-(phenylsulfonyl)hydrazide] here?
A: 4.6 µM

Q: And the melting point?
A: 76 to 77.1 °C

Q: For O=C(NNS(=O)(=O)c1ccccc1)c1ccc(NS(=O)(=O)c2ccc(F)cc2)cc1 [Example 14, Benzoic acid, 4-[[(4-fluorophenyl)sulfonyl]amino]-, 2-(phenylsulfonyl)hydrazide], which IC50 [1] is on record?
A: 4.8 µM

Q: What about the melting point of the same compound?
A: 183.5 to 185 °C

Q: For O=C(NNS(=O)(=O)c1ccccc1)c1ccc(NS(=O)(=O)c2ccccc2)cc1 [Example 15], which IC50 [1] is on record?
A: 4.9 µM

Q: What about the melting point of the same compound?
A: 140.8 to 144.5 °C

Q: With Cc1cccc(S(=O)(=O)Nc2ccc(C(=O)NNS(=O)(=O)c3ccccc3)cc2)c1 [Example 17, Benzoic acid, 4-[[(3-methylphenyl)sulfonyl]amino]-, 2-(phenylsulfonyl)hydrazide] as the compound, how does the IC50 [1] read?
A: 2.3 µM

Q: Which IC50 [2] does the source give for Cc1cccc(S(=O)(=O)NNC(=O)c2ccc(Oc3ccccc3)cc2)c1 [Example 18, 4-Phenoxybenzoic acid, 2-[(3-methyl)phenylsulfonyl]hydrazide] here?
A: 1.2 µM

Q: What about the IC50 [1] of the same compound?
A: 9.5 µM

Q: What does the source list for O=C(NNS(=O)(=O)c1cccc(Br)c1)c1ccc(Oc2ccccc2)cc1 [Example 19, 4-Phenoxybenzoic acid, 2-[3-bromophenylsulfonyl]hydrazide]?
A: IC50 [2]: 2.8 µM; IC50 [1]: 28 µM

Q: For O=C(NNS(=O)(=O)c1ccccc1Cl)c1ccc(Oc2ccccc2)cc1 [Example 20, 4-Phenoxybenzoic acid, 2-[2-chlorophenylsulfonyl]hydrazide], which IC50 [2] is on record?
A: 5.9 µM

Q: And the IC50 [1]?
A: 35 µM

Q: What does the source list for O=C(NNS(=O)(=O)c1ccccc1OC(F)(F)F)c1ccc(Oc2ccccc2)cc1 [Example 21, 4-Phenoxybenzoic acid, 2-[2-(trifluoromethoxy)phenylsulfonyl]hydrazide]?
A: IC50 [2]: 2.9 µM; IC50 [1]: 28 µM

Q: With Cc1ccc(S(=O)(=O)NNC(=O)c2ccc(Oc3ccccc3)cc2)cc1[N+](=O)[O-] [Example 22, 4-Phenoxybenzoic acid, 2-[(4-methyl-3-nitro)phenylsulfonyl]hydrazide] as the compound, how does the IC50 [1] read?
A: 110 µM

Q: Which IC50 [2] does the source give for O=C(NNS(=O)(=O)c1ccccc1C(F)(F)F)c1ccc(Oc2ccccc2)cc1 [Example 23, 4-Phenoxybenzoic acid, 2-[2-trifluorophenylsulfonyl]hydrazide] here?
A: 0.43 µM

Q: And the IC50 [1]?
A: 17 µM

Q: Which IC50 [2] does the source give for O=C(NNS(=O)(=O)c1ccccc1)c1cccc(Oc2ccccc2)c1 [Example 26, 3-Phenoxybenzoic acid, 2-(phenylsulfonyl)hydrazide] here?
A: 2.2 µM

Q: And the IC50 [1]?
A: 34 µM

Q: For O=C(NNS(=O)(=O)c1ccccc1)c1ccccc1Oc1ccccc1 [Example 27, 2-Phenoxybenzoic acid, 2-(phenylsulfonyl)hydrazide], which IC50 [1] is on record?
A: 50 µM

Q: And the melting point?
A: 149 to 150 °C

Q: Which results are given for O=C(NNS(=O)(=O)c1ccccc1)c1ccc(Oc2ccccc2)cc1 [Example 28, 4-Phenoxybenzoic acid, 2-(phenylsulfonyl)hydrazide]?
A: IC50 [2]: 1.5 µM; IC50 [1]: 37 µM

Q: For COc1ccc(S(=O)(=O)Nc2ccc(C(=O)NNS(=O)(=O)c3ccccc3)cc2)cc1 [Example 30, Benzoic acid, 4-[[(4-methoxyphenyl)sulfonyl]amino]-, 2-(phenylsulfonyl)hydrazide], which IC50 [1] is on record?
A: 2.8 µM

Q: And the melting point?
A: 164.3 to 164.9 °C

Q: With O=C(NNS(=O)(=O)c1ccccc1)c1ccc(I)cc1 [Example 31, 4-Iodo-benzoic acid, 2-(phenylsulfonyl)hydrazide] as the compound, how does the melting point read?
A: 193 to 195 °C

Q: For O=C(NNS(=O)(=O)c1ccccc1)c1ccc(C#CCC2CCCCC2)cc1 [Example 34, 4-(3-Cyclohexyl-1-propynyl)-benzoic acid, 2-(phenylsulfonyl)hydrazide], which IC50 [1] is on record?
A: 32.3 µM

Q: What about the melting point of the same compound?
A: 180 to 182 °C
